Blank lines part the entries; values can stand above or below the compound they belong to.
Biological target: T1, BTK protein (Homo sapiens, UniProt Q06187)
T1 construct: endogenous in cells; host or cells: TMD-8 cells
Test: Measurement of BTK protein degradation ability in TMD-8 cells (Western blotting)
Type: cell-based
Settings: harvested after 24 hours; for BTK degradation (%) 1 nM: compound 1 nM; for BTK degradation (%) 10 nM: compound 10 nM; for BTK degradation (%) 100 nM: compound 100 nM
Procedure: TMD-8, RAMOS, or 293T BTK MUT (C481S) cells were treated with the synthesized compounds, and then the amount of BTK protein present in the cells was measured using Western blotting detection. The protocol for the experiment conducted using TMD-8 cells was as follows:
[Culture] TMD-8 cells were resuspended in RPMI1640 MEDIUM (Hyclone, SH30027.01), 10% FBS (Hyclone, SV30207.02), and 1% Penicillin-streptomycin (Welgene, LS 202-02) media, and 1 mL of this suspension was seeded in a 12-well plate at a cell concentration of 1×10^6/mL.
[Compound treatment] The 12-well plate was treated as follows: The 10 mM stock was serially diluted 1/10 with DMSO (3 μL+27 μL DMSO), and cells were treated with compounds at final concentrations of 0.1, 1, 10 μM or 0.0001, 0.001, 0.01, 0.1 μM, and harvested after 24 hours. In the negative control group, DMSO diluted 1/10 was added to the media. (3 μL DMSO+27 μL media)
[Harvest] Each well was pipetted with a 1 mL pipette, collected in a 1.5 mL microtube, and centrifuged (500 g, 5 min, 4° C.). After removing the supernatant, it was washed with PBS and centrifuged again (500 g, 5 min, 4° C.). The supernatant was removed and the pellet was collected.
[Cell lysis and Sample preparation] lysis buffer was prepared as follows: RIPA buffer (Biosesang, RC2038-050-00), 0.5 mM PMSF (SIGMA, P7626) and 1× Protease/Phosphatase Inhibitor (Cell signaling, 5872S) were added at 60-70 μL per well and left on ice for 30 minutes. (Vortexing at 0 and 30 minutes, respectively), followed by sonication (10 seconds pulse, 30 seconds rest, 5 cycles, 70% amplification) and centrifuge (15000 g, 15 min, 4° C.). Only the supernatant was collected and transferred to a new microtube. The samples were diluted by ½ with RIPA buffer in a 96-well plate. 200 μL of the mixture A:B=50:1 of the BCA Protein Assay Kit (iNtRON, 21071) was added each, stayed at 37° C. for 30 minutes, and cooled for 10 minutes. Afterwards, absorbance was measured at 562 nm using BioTek's SYNERGY H1 microplate reader. After making a sample by quantifying the protein using the measured value, it was boiled at 70° C. for 10 minutes. The sample buffer used at this time was a mixture of NuPAGE or Bolt 4× sample buffer (Invitrogen) and each 10× sample reducing agent according to the gel to be used. RIPA buffer was used for protein dilution.
[Western blotting detection method] The same amount of sample was loaded on NuPAGE or Bolt Bis-tris 4-12% gradient gel and run (200 V, 35 minutes). It was transferred to a […] NC membrane using Trans-blot Turbo (BIO-RAD) (1.3 A constant, 25 V limit, 15 minutes). For blocking, skim milk or Intercept Blocking Buffer (LI-COR, 927-60001): 0.1% TBST=1:1 was used at room temperature for 1 hour. Anti BTK Rabbit (1:1,000 in 5% skim milk/0.2% TBST, size: 77 kDa, Cell signaling Technology) was reacted at 4° C. for 16 hours or at room temperature for 2 hours. Anti GAPDH Rabbit (1:10,000 in 5% BSA/0.2% TBST, size: 36 kDa, GENETEX) and Anti β-actin mouse (1:10,000 in 5% BSA/0.2% TBST, RT, size: 43 kDa, GENETEX) were reacted at room temperature for 1 hour or 3 hours. The samples were washed 3 times with 0.5% TBST for 5 minutes each. Secondary antibodies, Anti-Rabbit IgG (1:5,000 in 5% Skim milk/TBST, CST), IRDye® 800CW Goat anti-Rabbit IgG Secondary Antibody (1:10,000 in 5% skim/TBST, RT 45 min), IRDye® 680RD Goat anti-Mouse IgG Secondary Antibody (1:10,000 in 5% skim/TBST, RT 45 min) were added depending on each sample and reacted for 45 minutes on a rocker at room temperature. The samples were washed 5 times with 0.5% TBST for 5 minutes each and detected with LI-COR's Odyssey. At this time, BTK was detected using SuperSignal West Pico PLUS Chemiluminescent Substrate or SuperSignal West femto Maximum Sensitivity Substrate, and house-keeping genes were detected as is.

T1 sequence (Q06187 whole entry): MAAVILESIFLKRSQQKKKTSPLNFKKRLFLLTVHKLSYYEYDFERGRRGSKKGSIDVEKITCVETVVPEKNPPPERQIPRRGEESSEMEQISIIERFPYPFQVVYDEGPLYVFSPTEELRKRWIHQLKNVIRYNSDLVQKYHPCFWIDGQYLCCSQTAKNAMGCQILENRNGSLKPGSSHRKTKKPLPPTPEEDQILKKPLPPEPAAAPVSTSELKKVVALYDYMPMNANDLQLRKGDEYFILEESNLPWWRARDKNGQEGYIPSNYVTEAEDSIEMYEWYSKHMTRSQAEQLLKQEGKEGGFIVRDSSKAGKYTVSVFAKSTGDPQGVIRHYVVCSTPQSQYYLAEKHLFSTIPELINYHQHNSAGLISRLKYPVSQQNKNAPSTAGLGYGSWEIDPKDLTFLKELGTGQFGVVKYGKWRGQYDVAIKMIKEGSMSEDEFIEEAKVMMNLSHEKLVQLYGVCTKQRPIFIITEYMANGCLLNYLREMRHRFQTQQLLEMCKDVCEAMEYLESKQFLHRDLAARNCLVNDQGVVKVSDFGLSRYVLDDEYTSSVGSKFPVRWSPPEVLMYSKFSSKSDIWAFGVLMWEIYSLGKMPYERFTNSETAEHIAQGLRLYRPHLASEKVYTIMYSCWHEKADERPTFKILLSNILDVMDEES

Structure (SMILES): Cc1cc(-c2ccnc(Nc3cnn(C4CCN(CC5CCN(c6ccc7c(c6)C(=O)N(C6CCC(=O)NC6=O)C7=O)CC5)CC4)c3)n2)ccc1CNC(=O)c1cnn(C(C)(C)C)c1 (stereo not shown) [Example 37, 1-(tert-butyl)-N-(4-(2-((1-(1-((1-(2-(2,6-dioxopiperidin-3-yl)-1,3-dioxoisoindolin-5-yl)piperidin-4-yl)methyl)piperidin-4-yl)-1H-pyrazol-4-yl)amino)pyrimidin-4-yl)-2-methylbenzyl)-1H-pyrazole-4-carboxamide]
BTK degradation (%) 1 nM: 54.5% | BTK degradation (%) 10 nM: 92.5% | BTK degradation (%) 100 nM: 99%

Structure (SMILES): Cc1cc(-c2ccnc(Nc3ccc(N4CCN(CC5CCN(c6ccc(OC7CCC(=O)NC7=O)cc6)CC5)CC4)cc3)n2)ccc1CNC(=O)c1cnn(C(C)C)c1 (stereo not shown) [Example 48, N-(4-(2-((4-(4-((1-(4-((2,6-dioxopiperidin-3-yl)oxy)phenyl)piperidin-4-yl)methyl)piperazin-1-yl)phenyl)amino)pyrimidin-4-yl)-2-methylbenzyl)-1-isopropyl-1H-pyrazole-4-carboxamide]
BTK degradation (%) 1 nM: 53.5% | BTK degradation (%) 10 nM: 94.5% | BTK degradation (%) 100 nM: 99.0%

Structure (SMILES): Cc1cc(-c2ccnc(Nc3ccc(N4CCN(CC5CCN(c6ccc(OC7CCC(=O)NC7=O)cn6)CC5)CC4)cc3)n2)ccc1CNC(=O)N1CC(OC(C)C)C1 (stereo not shown) [Example 50, N-(4-(2-((4-(4-((1-(5-((2,6-dioxopiperidin-3-yl)oxy)pyridin-2-yl)piperidin-4-yl)methyl)piperazin-1-yl)phenyl)amino)pyrimidin-4-yl)-2-methylbenzyl)-3-isopropoxyazetidine-1-carboxamide]
BTK degradation (%) 1 nM: 19.7% | BTK degradation (%) 10 nM: 82.0% | BTK degradation (%) 100 nM: 99.3%

Structure (SMILES): Cc1cc(-c2ccnc(Nc3ccc4c(c3)CN(CC3CCN(c5ccc6c(c5)C(=O)N(C5CCC(=O)NC5=O)C6=O)CC3)CC4)n2)ccc1CNC(=O)c1cnn(C(C)(C)C)c1 (stereo not shown) [Example 2, 1-(tert-butyl)-N-(4-(2-((2-((1-(2-(2,6-dioxopiperidin-3-yl)-1,3-dioxoisoindolin-5-yl)piperidin-4-yl)methyl)-1,2,3,4-tetrahydroisoquinolin-7-yl)amino)pyrimidin-4-yl)-2-methylbenzyl)-1H-pyrazole-4-carboxamide]
BTK degradation (%) 10 nM: 84.5% | BTK degradation (%) 100 nM: 94%

Structure (SMILES): Cc1cc(-c2ccnc(Nc3ccc(N4CCN(CC5CCN(c6ccc(NC7CCC(=O)NC7=O)cc6F)CC5)CC4)cc3)n2)ccc1CNC(=O)c1cn(C(C)(C)C)nn1 (stereo not shown) [Example 72, 1-(tert-butyl)-N-(4-(2-((4-(4-((1-(4-((2,6-dioxopiperidin-3-yl)amino)-2-fluorophenyl)piperidin-4-yl)methyl)piperazin-1-yl)phenyl)amino)pyrimidin-4-yl)-2-methylbenzyl)-1H-1,2,3-triazole-4-carboxamide]
BTK degradation (%) 1 nM: 62.5% | BTK degradation (%) 10 nM: 95.5% | BTK degradation (%) 100 nM: 99.0%

Structure (SMILES): Cc1cc(-c2ccnc(Nc3ccc4c(c3)CN(CC3CCN(c5ccc6c(c5)C(=O)N(C5CCC(=O)NC5=O)C6=O)CC3)CC4)n2)ccc1CNC(=O)N1CC(OC(C)C)C1 (stereo not shown) [Example 1, N-(4-(2-((2-((1-(2-(2,6-dioxopiperidin-3-yl)-1,3-dioxoisoindolin-5-yl)piperidin-4-yl)methyl)-1,2,3,4-tetrahydroisoquinolin-7-yl)amino)pyrimidin-4-yl)-2-methylbenzyl)-3-isopropoxyazetidine-1-carboxamide]
BTK degradation (%) 10 nM: 92% | BTK degradation (%) 100 nM: 97.5%

Results, then the compound that gave them:

BTK degradation (%) 1 nM: 60.5% | BTK degradation (%) 10 nM: 96.5% | BTK degradation (%) 100 nM: 100.0%
Structure (SMILES): Cc1cc(-c2ccnc(Nc3ccc(N4CCC(CN5CCN(c6ccc(NC7CCC(=O)NC7=O)cn6)CC5)CC4)cc3)n2)ccc1CNC(=O)c1cn(C(C)(C)C)nn1 (stereo not shown) [Example 133, 1-(tert-butyl)-N-(4-(2-((4-(4-((4-(5-((2,6-dioxopiperidin-3-yl)amino)pyridin-2-yl)piperazin-1-yl)methyl)piperidin-1-yl)phenyl)amino)pyrimidin-4-yl)-2-methylbenzyl)-1H-1,2,3-triazole-4-carboxamide]

BTK degradation (%) 1 nM: 59.5% | BTK degradation (%) 10 nM: 93.5% | BTK degradation (%) 100 nM: 98.5%
Structure (SMILES): Cc1cc(-c2ccnc(Nc3ccc(N4CCN(CC5CN(C(=O)c6cccc(NC7CCC(=O)NC7=O)c6)C5)CC4)cc3)n2)ccc1CNC(=O)c1cnn(C(C)C)c1 (stereo not shown) [Example 94, N-(4-(2-((4-(4-((1-(3-((2,6-dioxopiperidin-3-yl)amino)benzoyl)azetidin-3-yl)methyl)piperazin-1-yl)phenyl)amino)pyrimidin-4-yl)-2-methylbenzyl)-1-isopropyl-1H-pyrazole-4-carboxamide]

BTK degradation (%) 1 nM: 63.5% | BTK degradation (%) 10 nM: 95% | BTK degradation (%) 100 nM: 98%
Structure (SMILES): Cc1cc(-c2ccnc(Nc3ccc(N4CCN(CC5CN(c6ccc7c(n6)CN(C6CCC(=O)NC6=O)C7=O)C5)CC4)cc3)n2)ccc1CNC(=O)N1CC(OC(C)C)C1 (stereo not shown) [Example 107, N-(4-(2-((4-(4-((1-(6-(2,6-dioxopiperidin-3-yl)-5-oxo-6,7-dihydro-5H-pyrrolo[3,4-b]pyridin-2-yl)azetidin-3-yl)methyl)piperazin-1-yl)phenyl)amino)pyrimidin-4-yl)-2-methylbenzyl)-3-isopropoxyazetidine-1-carboxamide]

BTK degradation (%) 1 nM: 26.5% | BTK degradation (%) 10 nM: 88.0% | BTK degradation (%) 100 nM: 99.0%
Structure (SMILES): Cc1cc(-c2ccnc(Nc3ccc(N4CCC(CN5CCC(c6ccc(NC7CCC(=O)NC7=O)cc6)CC5)CC4)nc3)n2)ccc1CNC(=O)c1cn(C(C)(C)C)nn1 (stereo not shown) [Example 146, 1-(tert-butyl)-N-(4-(2-((6-(4-((4-(4-((2,6-dioxopiperidin-3-yl)amino)phenyl)piperidin-1-yl)methyl)piperidin-1-yl)pyridin-3-yl)amino)pyrimidin-4-yl)-2-methylbenzyl)-1H-1,2,3-triazole-4-carboxamide]

BTK degradation (%) 1 nM: 15.0% | BTK degradation (%) 10 nM: 70.5% | BTK degradation (%) 100 nM: 96.5%
Structure (SMILES): Cc1cc(-c2ccnc(Nc3ccc(CN4CCC(CN5CCC(c6ccc(N7CCC(=O)NC7=O)cc6)CC5)CC4)cc3)n2)ccc1CNC(=O)c1cn(C(C)(C)C)nn1 [Example 141, 1-(tert-butyl)-N-(4-(2-((4-((4-((4-(4-(2,4-dioxotetrahydropyrimidin-1 (2H)-yl)phenyl)piperidin-1-yl)methyl)piperidin-1-yl)methyl)phenyl)amino)pyrimidin-4-yl)-2-methylbenzyl)-1H-1,2,3-triazole-4-carboxamide]

BTK degradation (%) 1 nM: 56.5% | BTK degradation (%) 10 nM: 95.0% | BTK degradation (%) 100 nM: 99.5%
Structure (SMILES): Cc1cc(-c2ccnc(Nc3ccc(N4CCC(CN5CCC(c6ccc(NC7CCC(=O)NC7=O)cn6)CC5)CC4)cc3)n2)ccc1CNC(=O)c1cnn(C(C)(C)C)c1 (stereo not shown) [Example 130, 1-(tert-butyl)-N-(4-(2-((4-(4-((4-(5-((2,6-dioxopiperidin-3-yl)amino)pyridin-2-yl)piperidin-1-yl)methyl)piperidin-1-yl)phenyl)amino)pyrimidin-4-yl)-2-methylbenzyl)-1H-pyrazole-4-carboxamide]
